Bounds are passed on as bounds.

The subject of data set [1] is A2780wt cells. In words: Comet assay (intracellular DNA damage). As to conditions: 50 µM, 48 h incubation. It is filed as cell-based. How it is done:
Given that platinum‐based drugs are known to commonly induce DNA damage, a comet assay was conducted using A2780wt cells. This assay detects DNA damage such as DNA single/double strand breaks and DNA fragmentation, a common feature of apoptosis. […] DMF (0.1%)‐treated cells were used as a negative control to establish baseline DNA integrity.
Cellular DNA damage can be visualized by employing a comet assay, which is a single cell gel electrophoresis assay. Hereby, A2780wt cells were seeded at a density of 2 × 10^6 into 25 cm^2 flasks. After letting the cells adhere for 24 h in a humidified atmosphere, the cell culture medium was exchanged for medium containing the respective compound. The cells were then incubated for 48 h with the platinum complexes or 4 h with etoposide, respectively. After incubation, the cell growth was stopped by removing the compound‐containing medium, washing the cells with phosphate‐buffered saline (PBS) and detaching them with a rubber policeman. The detached cells were then centrifuged at 700g for 2 min and the resulting pellet was then washed with 5 mL of PBS. After that, the cells were adjusted to a concentration of 1 × 10^6 cells/mL and were resuspended in ice cold PBS. A total of 75 µL of liquified agarose per condition was transferred onto the slide to create a base layer. This base layer was solidified by transferring the slide to 4°C for 15 min. Afterwards, 10 µL of the above‐mentioned cell suspension in PBS were mixed with 90 µL of agarose. A total of 75 µL of this was added to each base layer, respectively. This layer was also allowed to solidify at 4°C for 15 min. The slide was then transferred to a small basin which contained pre‐chilled lysis buffer (14.6 g NaCl, 20 mL EDTA solution, 10 mL lysis solution, 10 mL DMSO, 60 mL deionized H2O), where it remained for 45 min in the dark at 4°C. The lysis buffer was then aspirated and exchanged with a pre‐chilled alkaline solution (1.2 g NaOH, 0.2 mL EDTA solution, 100 mL deionized H2O), where it remained for further 30 min in the dark at 4°C. The slide was then transferred to a horizontal electrophoresis chamber which was filled with cold alkaline solution. The electrophoresis conditions were set to 1.5 V/cm and 300 mA for 20 min. After the electrophoresis, the slide was transferred into a small basin containing pre‐chilled, deionized H2O. After 2 min, the water was aspirated and this washing step was repeated twice more. After the final rinse, the slide was submerged in 70% ethanol for 5 min. Once the slide has dried, 100 µL of diluted Vista Green DNA Dye was added to each well. After 15 min of incubation, the slides were analyzed on an IX‐70 epifluorescence microscope (Olympus, Shinjuku, Japan) using a FITC filter.

Data set [2] deals with A2780wt cells. In words: Annexin V/PI staining and FACS analysis, A2780wt. It is filed as cell-based. To be noted: w/o BGs, 25 µM, 24 h; for late apoptosis/ necrosis: Annexin V positive/PI positive; for early apoptosis: percentage of cells (Annexin V positive/PI negative). How it is done:
(§1) Therefore, we aimed to evaluate the apoptosis and necrosis inducing potential of complexes 1–4 via a fluorescent‐activated cell sorting (FACS) analysis with Annexin V/propidium iodide (PI) staining in A2780wt and A2780cis cells. Cells were treated for 24 h with both the free and BG‐loaded forms of each compound at 25 µM. Carboplatin (50 µM) served as a reference.
(§2) To evaluate the mode of cell death, a FACS measurement after staining with Annexin V and PI was conducted. First, 0.3 × 10^6 A2780wt or A2780cis cells were seeded into 12‐well plates and were allowed to adhere for 24 h. The compounds were added at 25 µM, either diluted from a freshly prepared DMF stock solution (0.1% DMF) or freshly thawed when loaded in BGs. After 24 h of incubation, the cells were harvested with accutase and washed with PBS. The cells were then resuspended in 200 µL of PBS each and 1 µL of PI solution (Sigma‐Aldrich, Taufkirchen, Germany) and 1 µL of Annexin V‐FITC (MabTag GmbH, Friesoythe, Germany) were added to each sample. These were then incubated for 20 min at rt under light‐protected conditions and afterward transferred onto ice. The percentage of apoptotic cells was determined by analyzing Annexin V positive /PI negative cells using a BD LSRFortessa flow cytometer and BD FACSDiva software (both BD Biosciences, San Jose, CA, USA). The apoptosis analysis included the evaluation of early apoptosis (Annexin V positive/PI negative) and late apoptosis/necrosis (Annexin V positive /PI positive).

Data set [3] relates to caspase‐3 in A2780wt cells. Description: Caspase‐3 activity assay (ApoTox‐Glo), A2780wt. It is filed as cell-based. To be noted: w/o BGs, 25 µM, 24 h. The method, then:
Furthermore, caspase‐3 activation serves as a primary hallmark of apoptosis. Therefore, we evaluated this induction with a luminescence‐based caspase‐3 activity assay on A2780wt cells.
The caspase‐3 assay was performed to investigate the induction of apoptosis by the compounds. It was performed by employing the commercially available ApoTox‐Glo Triplex Assay (Promega Corporation, Madison, USA), which specifically correlates cell viability and toxicity to apoptosis. In brief, A2780wt and A2780cis cells, respectively, were seeded at a density of 8 × 10^3 cells per well into an opaque‐walled 96‐well plate with solid bottoms. […] After incubation, 20 µL of the provided viability/toxicity reagent was added and incubated for further 30 min on an orbital shaker at 37°C. […] Then, 100 µL of Caspase‐Glo 3/7 reagent was added, gently shaken for 30 s and further incubated for 30 min. The caspase activation was determined via the measurement of the luminescence. Analysis was performed on the BioTek Synergy H1 (Agilent Technologies, Santa Clara, USA).

A further data set in a line: Water solubility. It is filed as physicochemical.
The test system of the next data set is A2780cis cells. In words: Annexin V/PI staining and FACS analysis, A2780cis. The data set is classed as cell-based. As to conditions: w/o BGs, 25 µM, 24 h; for late apoptosis/ necrosis: Annexin V positive/PI positive; for early apoptosis: percentage of cells (Annexin V positive/PI negative). How it is done:
as §1, §2
(In general: Flow cytometry measures light scatter and fluorescence of single cells or particles in a stream.)

Take `CCN1[C]([Pt]([O]C(C)=O)([O]C(C)=O)[SH](C)(C)=O)N(CC)c2ccccc21` [Compound 1, (SP‐4‐2)‐Diacetato(1,3‐diethylbenzimidazol‐2‐ylidene)(dimethylsulfoxide)platinum(II)]: the “intracellular DNA damage (comet formation)” value (“intracellular DNA damage” below) in the data set with A2780wt cells [1] is on record as “induced intracellular DNA damage”. Moreover, the late apoptosis/ necrosis with A2780wt cells [2] is 29.1 ± 2.56; in the data set on A2780cis cells, 15.0 ± 1.65. Moreover, the results for the early apoptosis in the data set with A2780wt cells [2] and in the data set on A2780cis cells were 15.9 ± 1.55 and 21.3 ± 1.18, respectively. In addition, in data set [3], the “x-fold caspase-3 induction compared to untreated cells” value (“x-fold caspase-3 induction” for short) came out at 2.64 ± 0.32 x-fold. Further, in “Water solubility”, the water solubility result is listed as “approximately 10 mg/mL”.

On to `CCN1[C]([Pt]([O]C(=O)C(Cl)Cl)([O]C(=O)C(Cl)Cl)[SH](C)(C)=O)N(CC)c2ccccc21` [Compound 3, (SP‐4‐2)‐Bis(dichloroacetato)(1,3‐diethylbenzimidazol‐2‐ylidene)(dimethylsulfoxide)platinum(II)], for which the “intracellular DNA damage” value in the data set with A2780wt cells [1] was “induced intracellular DNA damage”. Also, in the data set with A2780wt cells [2], the late apoptosis/ necrosis worked out at 28.8 ± 2.50 and the early apoptosis is on record as 15.3 ± 1.17. The “x-fold caspase-3 induction” value in data set [3] was 3.06 ± 1.20 x-fold. The compound further returned a water solubility in the data set “Water solubility” of less than 500 µg/mL. Moreover, in the data set with A2780cis cells, the late apoptosis/ necrosis stood at 10.6 ± 0.95 and the early apoptosis stood at 11.4 ± 1.82.

Take “(SP‐4‐2)‐Bis(dichloroacetato)bis(1,3‐diethylbenzimidazol‐2‐ylidene)platinum(II) [Compound 4]”: the “intracellular DNA damage” value with A2780wt cells [1] is recorded as “induced intracellular DNA damage”. Moreover, in the data set on A2780wt cells [2], the late apoptosis/ necrosis is recorded as 46.9 ± 3.01 and the early apoptosis turned out to be 13.2 ± 0.22. The “x-fold caspase-3 induction” value in data set [3] came to 1.89 ± 0.03 x-fold. For the same compound, in the data set “Water solubility”, the water solubility was less than 500 µg/mL. In the data set on A2780cis cells, the late apoptosis/ necrosis turned out to be 18.1 ± 1.46 and the early apoptosis is 22.9 ± 1.67.

Regarding “(SP‐4‐2)‐Diacetatobis(1,3‐diethylbenzimidazol‐2‐ylidene)platinum(II) [Compound 2]”, in the data set with A2780wt cells [1], the “intracellular DNA damage” value is “did not show any evidence of comet formation”. Besides, the late apoptosis/ necrosis amounted to 25.9 ± 5.70 with A2780wt cells [2] and 10.0 ± 1.77 in the data set with A2780cis cells. The figures for the early apoptosis in the data set with A2780wt cells [2] and in the data set on A2780cis cells were 9.37 ± 0.31 and 6.37 ± 1.17, respectively. Also, the “x-fold caspase-3 induction” value in data set [3] was 0.39 ± 0.13 x-fold. The water solubility entry in the data set “Water solubility” was “around 3 mg/mL”.

Source of the values: article PMC12476087, “Loading of Dicarboxylatoplatinum(II)‐NHC Complexes in Bacterial Ghosts as an Advanced Development in Cancer Therapy” (Archiv Der Pharmazie, 2025).
